Experimental findings from BindingDB's records for doi:10.1039/d0md00137f (University of Regensburg, 2020) are described below.

This test concerns the target Muscarinic acetylcholine receptor M2 (Homo sapiens) (UniProt P08172). As to the kind of experiment: Displacement of [3H]NMS from human recombinant muscarinic receptor M2 expressed in […] cell membranes measured after 3 hrs by radioligand competition binding assay. (In general: Loss of bound radioactivity is the signal in a displacement assay; it reports binding, not function.)

The Ki is a dissociation constant, usually derived from enzyme kinetics or from competition with a known ligand. On to `NCCNC(=O)CCc1cn(CCCCC2CCN(CC(=O)N3c4ccccc4NC(=O)c4ccccc43)CC2)cn1`, for which the Ki was 0.589 nM. The result for `Cc1cc(/C=C/C=C/c2ccc(N(C)C)cc2)cc(C)[n+]1CCN1CCN(CCCCC2CCN(CC(=O)N3c4ccccc4NC(=O)c4ccccc43)CC2)CC1` reads 3 nM.
